Experimental data as given in patent US20250206727A1, “HETEROCYCLIC SUBSTITUTED AROMATIC COMPOUND, PREPARATION METHOD THEREFOR, HERBICIDAL COMPOSITION AND APPLICATION” (QINGDAO KINGAGROOT CHEMICAL COMPOUND CO., LTD., priority 2022, published 2025).

Assays:
Assay in all cases: Post-emergence test on weeds (greenhouse, spray at 2-3 leaf stage)
Type in all cases: in vivo
Design in all cases: key: Level 10: completely dead; Level 9: growth control rate greater than or equal to 90% and less than 100%; Level 8: growth control rate greater than or equal to 80% and less than 90%; Level 7: growth control rate greater than or equal to 70% and less than 80%; Level 6: growth control rate greater than or equal to 60% and less than 70%; Level 5: growth control rate greater than or equal to 50% and less than 60%; Level 4: growth control rate greater than or equal to 40% and less than 50%; Level 3: growth control rate greater than or equal to 30% and less than 40%; Level 2: growth control rate greater than or equal to 20% and less than 30%; Level 1: growth control rate less than 20%; Level 0: no effect
Settings in all cases: 3 weeks after application
[1] = system: Amaranthus retroflexus
How it was run: (§1)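 Pot-grown plants were spray-tower treated two weeks after sowing with compound in acetone/Tween 80 plus 1.5 L/ha methyl oleate EC, at rates from 500 to 7.5 g a.i./ha. Fresh-weight growth control was scored 0–10 after 3 weeks in the greenhouse, averaged over triplicates.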

[2] = system: Setaria viridis
How it was run: as §1

[3] = system: Abutilon theophrasti
How it was run: as §1

[4] = system: Digitaria sanguinalis
How it was run: as §1

[5] = system: Veronica polita
How it was run: as §1

[6] = system: Echinochloa crus-galli
How it was run: as §1

CCOC(=O)C1(C)ON=C(c2cc(-c3ncc(C(F)(F)F)cc3F)c(F)cc2Cl)O1 (stereo not drawn) [Compound 34]
10: activity level (fresh weight growth control rate), Amaranthus retroflexus ([1]; 60 g a.i./ha) | activity level (fresh weight growth control rate), Setaria viridis ([2]; 60 g a.i./ha) | activity level (fresh weight growth control rate), Abutilon theophrasti ([3]; 60 g a.i./ha) | activity level (fresh weight growth control rate), Digitaria sanguinalis ([4]; 60 g a.i./ha) | activity level (fresh weight growth control rate), Veronica polita ([5]; 60 g a.i./ha) | activity level (fresh weight growth control rate), Echinochloa crus-galli ([6]; 60 g a.i./ha)

CCOC(=O)C1(C)ON=C(c2cc(-c3ncc(F)cc3Cl)c(F)cc2Cl)O1 (stereo not drawn) [Compound 35]
10: activity level (fresh weight growth control rate), Amaranthus retroflexus ([1]; 60 g a.i./ha) | activity level (fresh weight growth control rate), Setaria viridis ([2]; 60 g a.i./ha) | activity level (fresh weight growth control rate), Abutilon theophrasti ([3]; 60 g a.i./ha) | activity level (fresh weight growth control rate), Digitaria sanguinalis ([4]; 60 g a.i./ha) | activity level (fresh weight growth control rate), Veronica polita ([5]; 60 g a.i./ha) | activity level (fresh weight growth control rate), Echinochloa crus-galli ([6]; 60 g a.i./ha)

CCOC(=O)C1(C)ON=C(c2cc(-c3ncc(C(F)(F)F)cc3Cl)c(F)cc2Cl)O1 (stereo not drawn) [Compound 39]
10: activity level (fresh weight growth control rate), Amaranthus retroflexus ([1]; 15 g a.i./ha) | activity level (fresh weight growth control rate), Setaria viridis ([2]; 15 g a.i./ha) | activity level (fresh weight growth control rate), Abutilon theophrasti ([3]; 15 g a.i./ha) | activity level (fresh weight growth control rate), Digitaria sanguinalis ([4]; 15 g a.i./ha) | activity level (fresh weight growth control rate), Veronica polita ([5]; 15 g a.i./ha) | activity level (fresh weight growth control rate), Echinochloa crus-galli ([6]; 15 g a.i./ha)

CCOC(=O)C1(C)ON=C(c2cc(-c3ncc(Cl)cc3Cl)c(F)cc2Cl)O1 (stereo not drawn) [Compound 40]
10: activity level (fresh weight growth control rate), Amaranthus retroflexus ([1]; 60 g a.i./ha) | activity level (fresh weight growth control rate), Setaria viridis ([2]; 60 g a.i./ha) | activity level (fresh weight growth control rate), Abutilon theophrasti ([3]; 60 g a.i./ha) | activity level (fresh weight growth control rate), Digitaria sanguinalis ([4]; 60 g a.i./ha) | activity level (fresh weight growth control rate), Veronica polita ([5]; 60 g a.i./ha) | activity level (fresh weight growth control rate), Echinochloa crus-galli ([6]; 60 g a.i./ha)

CCOC(=O)C1(C)ON=C(c2cc(-c3ncc(C(F)(F)F)cc3Cl)c(F)cc2C(F)(F)F)O1 (stereo not drawn) [Compound 54]
10: activity level (fresh weight growth control rate), Amaranthus retroflexus ([1]; 60 g a.i./ha) | activity level (fresh weight growth control rate), Setaria viridis ([2]; 60 g a.i./ha) | activity level (fresh weight growth control rate), Abutilon theophrasti ([3]; 60 g a.i./ha) | activity level (fresh weight growth control rate), Digitaria sanguinalis ([4]; 60 g a.i./ha) | activity level (fresh weight growth control rate), Veronica polita ([5]; 60 g a.i./ha) | activity level (fresh weight growth control rate), Echinochloa crus-galli ([6]; 60 g a.i./ha)

CCOC(=O)C1(C)ON=C(c2cc(-c3ncc(C(F)(F)F)cc3Cl)c(F)cc2C#N)O1 (stereo not drawn) [Compound 56]
10: activity level (fresh weight growth control rate), Amaranthus retroflexus ([1]; 60 g a.i./ha) | activity level (fresh weight growth control rate), Setaria viridis ([2]; 60 g a.i./ha) | activity level (fresh weight growth control rate), Abutilon theophrasti ([3]; 60 g a.i./ha) | activity level (fresh weight growth control rate), Digitaria sanguinalis ([4]; 60 g a.i./ha) | activity level (fresh weight growth control rate), Veronica polita ([5]; 60 g a.i./ha) | activity level (fresh weight growth control rate), Echinochloa crus-galli ([6]; 60 g a.i./ha)

CCOC(=O)C1(CC)ON=C(c2cc(-c3ncc(C(F)(F)F)cc3F)c(F)cc2Cl)O1 (stereo not drawn) [Compound 58]
10: activity level (fresh weight growth control rate), Amaranthus retroflexus ([1]; 60 g a.i./ha) | activity level (fresh weight growth control rate), Setaria viridis ([2]; 60 g a.i./ha) | activity level (fresh weight growth control rate), Abutilon theophrasti ([3]; 60 g a.i./ha) | activity level (fresh weight growth control rate), Digitaria sanguinalis ([4]; 60 g a.i./ha) | activity level (fresh weight growth control rate), Veronica polita ([5]; 60 g a.i./ha) | activity level (fresh weight growth control rate), Echinochloa crus-galli ([6]; 60 g a.i./ha)

CCOC(=O)C1(C(F)(F)F)ON=C(c2cc(-c3ncc(C(F)(F)F)cc3Cl)c(F)cc2Cl)O1 (stereo not drawn) [Compound 62]
10: activity level (fresh weight growth control rate), Amaranthus retroflexus ([1]; 60 g a.i./ha) | activity level (fresh weight growth control rate), Setaria viridis ([2]; 60 g a.i./ha) | activity level (fresh weight growth control rate), Abutilon theophrasti ([3]; 60 g a.i./ha) | activity level (fresh weight growth control rate), Digitaria sanguinalis ([4]; 60 g a.i./ha) | activity level (fresh weight growth control rate), Veronica polita ([5]; 60 g a.i./ha) | activity level (fresh weight growth control rate), Echinochloa crus-galli ([6]; 60 g a.i./ha)

CCOC(=O)C1(C2CC2)ON=C(c2cc(-c3ncc(C(F)(F)F)cc3Cl)c(F)cc2Cl)O1 (stereo not drawn) [Compound 79]
10: activity level (fresh weight growth control rate), Amaranthus retroflexus ([1]; 60 g a.i./ha) | activity level (fresh weight growth control rate), Setaria viridis ([2]; 60 g a.i./ha) | activity level (fresh weight growth control rate), Abutilon theophrasti ([3]; 60 g a.i./ha) | activity level (fresh weight growth control rate), Digitaria sanguinalis ([4]; 60 g a.i./ha) | activity level (fresh weight growth control rate), Veronica polita ([5]; 60 g a.i./ha) | activity level (fresh weight growth control rate), Echinochloa crus-galli ([6]; 60 g a.i./ha)

CCSC(=O)C1(C)ON=C(c2cc(-c3ncc(C(F)(F)F)cc3Cl)c(F)cc2Cl)O1 (stereo not drawn) [Compound 85]
10: activity level (fresh weight growth control rate), Amaranthus retroflexus ([1]; 60 g a.i./ha) | activity level (fresh weight growth control rate), Setaria viridis ([2]; 60 g a.i./ha) | activity level (fresh weight growth control rate), Abutilon theophrasti ([3]; 60 g a.i./ha) | activity level (fresh weight growth control rate), Digitaria sanguinalis ([4]; 60 g a.i./ha) | activity level (fresh weight growth control rate), Veronica polita ([5]; 60 g a.i./ha) | activity level (fresh weight growth control rate), Echinochloa crus-galli ([6]; 60 g a.i./ha)

CCCOC(=O)C1(C)ON=C(c2cc(-c3ncc(C(F)(F)F)cc3Cl)c(F)cc2Cl)O1 (stereo not drawn) [Compound 86]
10: activity level (fresh weight growth control rate), Amaranthus retroflexus ([1]; 60 g a.i./ha) | activity level (fresh weight growth control rate), Setaria viridis ([2]; 60 g a.i./ha) | activity level (fresh weight growth control rate), Abutilon theophrasti ([3]; 60 g a.i./ha) | activity level (fresh weight growth control rate), Digitaria sanguinalis ([4]; 60 g a.i./ha) | activity level (fresh weight growth control rate), Veronica polita ([5]; 60 g a.i./ha) | activity level (fresh weight growth control rate), Echinochloa crus-galli ([6]; 60 g a.i./ha)

CCCOC(=O)C1(C)ON=C(c2cc(-c3ncc(Cl)cc3Cl)c(F)cc2Cl)O1 (stereo not drawn) [Compound 87]
10: activity level (fresh weight growth control rate), Amaranthus retroflexus ([1]; 60 g a.i./ha) | activity level (fresh weight growth control rate), Setaria viridis ([2]; 60 g a.i./ha) | activity level (fresh weight growth control rate), Abutilon theophrasti ([3]; 60 g a.i./ha) | activity level (fresh weight growth control rate), Digitaria sanguinalis ([4]; 60 g a.i./ha) | activity level (fresh weight growth control rate), Veronica polita ([5]; 60 g a.i./ha) | activity level (fresh weight growth control rate), Echinochloa crus-galli ([6]; 60 g a.i./ha)

CC(C)OC(=O)C1(C)ON=C(c2cc(-c3ncc(C(F)(F)F)cc3Cl)c(F)cc2Cl)O1 (stereo not drawn) [Compound 88]
10: activity level (fresh weight growth control rate), Amaranthus retroflexus ([1]; 60 g a.i./ha) | activity level (fresh weight growth control rate), Setaria viridis ([2]; 60 g a.i./ha) | activity level (fresh weight growth control rate), Abutilon theophrasti ([3]; 60 g a.i./ha) | activity level (fresh weight growth control rate), Digitaria sanguinalis ([4]; 60 g a.i./ha) | activity level (fresh weight growth control rate), Veronica polita ([5]; 60 g a.i./ha) | activity level (fresh weight growth control rate), Echinochloa crus-galli ([6]; 60 g a.i./ha)

CCCCOC(=O)C1(C)ON=C(c2cc(-c3ncc(C(F)(F)F)cc3Cl)c(F)cc2Cl)O1 (stereo not drawn) [Compound 89]
10: activity level (fresh weight growth control rate), Amaranthus retroflexus ([1]; 60 g a.i./ha) | activity level (fresh weight growth control rate), Setaria viridis ([2]; 60 g a.i./ha) | activity level (fresh weight growth control rate), Abutilon theophrasti ([3]; 60 g a.i./ha) | activity level (fresh weight growth control rate), Digitaria sanguinalis ([4]; 60 g a.i./ha) | activity level (fresh weight growth control rate), Veronica polita ([5]; 60 g a.i./ha) | activity level (fresh weight growth control rate), Echinochloa crus-galli ([6]; 60 g a.i./ha)

C=CCOC(=O)C1(C)ON=C(c2cc(-c3ncc(C(F)(F)F)cc3Cl)c(F)cc2Cl)O1 (stereo not drawn) [Compound 93]
10: activity level (fresh weight growth control rate), Amaranthus retroflexus ([1]; 60 g a.i./ha) | activity level (fresh weight growth control rate), Setaria viridis ([2]; 60 g a.i./ha) | activity level (fresh weight growth control rate), Abutilon theophrasti ([3]; 60 g a.i./ha) | activity level (fresh weight growth control rate), Digitaria sanguinalis ([4]; 60 g a.i./ha) | activity level (fresh weight growth control rate), Veronica polita ([5]; 60 g a.i./ha) | activity level (fresh weight growth control rate), Echinochloa crus-galli ([6]; 60 g a.i./ha)

CC(C)=CCOC(=O)C1(C)ON=C(c2cc(-c3ncc(C(F)(F)F)cc3Cl)c(F)cc2Cl)O1 (stereo not drawn) [Compound 96]
10: activity level (fresh weight growth control rate), Amaranthus retroflexus ([1]; 60 g a.i./ha) | activity level (fresh weight growth control rate), Setaria viridis ([2]; 60 g a.i./ha) | activity level (fresh weight growth control rate), Abutilon theophrasti ([3]; 60 g a.i./ha) | activity level (fresh weight growth control rate), Digitaria sanguinalis ([4]; 60 g a.i./ha) | activity level (fresh weight growth control rate), Veronica polita ([5]; 60 g a.i./ha) | activity level (fresh weight growth control rate), Echinochloa crus-galli ([6]; 60 g a.i./ha)
